According to patent US10272055B2, “Therapeutic compounds and methods” (Regents of the University of Minnesota, priority 2014, dated 2019):
Entries after “also recorded” stand apart in the source; their conditions may differ.

Experiments:
[1] = tested on: breast cancer cells and primary cells; experiment: OCR and ECAR, XF Extracellular Flux Analyzer; assay type: cell-based; conditions: HBB 20 uM or 40 uM vs DMSO
Description: Measuring glycolysis and oxidative metabolism. Cells were maintained in growth medium consisting of 10% FBS, at 37° C. with 5% CO2 and seeded at 100,000 cells per well in XF24-well cell culture microplates (for primary cells HUVEC and HDMVEC, plates were pre-coated with 0.2% college before seeding). Concentrated stocks of HBB was prepared in DMSO. HBB was diluted to 10× working concentration in XF assay medium (a non-buffered medium including 2 mM of L-glutamine but no sodium bicarbonate (buffering agent), glucose, or sodium pyruvate).
Before analysis, the cells were switched from culture medium to XF assay medium. Following baseline measurements, 75 μl of HBB prepared in assay medium was injected into each well to reach final working concentrations. Following the addition of HBB, OCR and ECAR were measured at fixed time interval.
Cells were maintained in growth medium consisting of 10% FBS, at 37° C. with 5% CO2 and seeded at 100,000 cells per well in XF24-well cell culture microplates (for HUVEC, plates were pre-coated with 0.2% college before seeding). Before analysis, the cells were switched from culture medium to XF assay medium. Following baseline measurements, 75 μl of HBB prepared in assay medium was injected into each well to reach final working concentrations. Following the addition of HBB, OCR and ECAR were measured at fixed interval. […]

[2] = tested on: MDA-MB-231 xenograft; experiment: MDA-MB-231 xenograft in nude mice; assay type: in vivo; conditions: HBB 4 mg/kg ip daily vs PBS/vehicle
Description: FIG. 3A. MCF-7 xenograft with 3×10^6 cells in the 2nd mammary fat pad on day 0. HBB (4 mg/kg ip daily) (ν) or PBS (ρ) treatment began on day 1. * indicates P<0.05. FIG. 3B. MDAMB-231 xenograft with 1×10^6 cells in the 2nd mammary fat pad on day 0. HBB (4 mg/kg ip daily) (ν) or PBS (ρ) treatment began on day 1. N=20 mice per arm for each study; error bars are SEM.
FIG. 44A. Nude mice were inoculated with 3×10^6 MCF-7 cells and treated with vehicle (Δ) HBB at the MTD (4 mg/kg/day ip) (▪). (* indicates P<0.05). Error bars are SEM. […] The dose limiting toxicity was weight loss. At the MTD there was a well-tolerated 4% reduction of weight at 42 days (P<0.0001; data not shown). FIG. 44B. Nude mice were inoculated with 1×10^6MDA-MB-231 cells and treated with HBB at the MTD (4 mg/kg/day ip).

[3] = HBB concentration after ip administration, MCF-7 model; parameters: species or system mice; conditions: nude, mouse, in vivo, intraperitoneal, 4 mg/kg/day ip, read-out: Concentration of HBB 1 hour following ip administration
Description: Concentration of HBB 1 hour following ip administration was 0.527 uM as measured in the MCF-7 model. HBB was administered ip at 4 mg/kg/day in both models, which is the MTD for that dose, route and schedule.

[4] = tested on: CD31; experiment: Angiogenesis by CD31 staining, MDA-MB-231 xenograft tumors; assay type: in vivo, mice; conditions: MDA-MB-231 model, HBB 4 mg/kg/day ip vs PBS
Description: (§1) Xenogaft tumors from the MCF-7 and MDA-MB-231 models were tested for inhibition of angiogenesis by HBB using CD31 staining.
(§2) The samples were cryosectioned at 6 um and fixed with chilled 100% acetone for 10 minutes. Samples were blocked with 3% donkey serum in PBS for 30 minutes at 37 C.
(§3) The antibody used to stain CD-31 was from BD Pharmingen PE Rat anti Mouse CD31, catalog number 553373. It was used at a dilution of 1:50 in blocking buffer for 1 hour at 37 C.
(§4) The samples were then stained for 10 minutes with DAPI at a concentration of 1:2000, from Life Technologies, catalog number D1306.
(§5) Each sample was imaged in 4-5 areas. There were 3 samples per condition, PBS vs HBB.

[5] = target: CYP3A4D3-24 (Homo sapiens, UniProt P08684); experiment: Spectral binding (spin shift) to CYP3A4D3-24; conditions: vs metformin
[6] = Tolerability in xenograft mice (MTD, weight); conditions: mouse, in vivo
Description: […]. (* indicates P<0.05). Error bars are SEM. […] The dose limiting toxicity was weight loss. At the MTD there was a well-tolerated 4% reduction of weight at 42 days (P<0.0001; data not shown). […].

[7] = tested on: CD31; experiment: Angiogenesis by CD31 staining, MCF-7 xenograft tumors; assay type: in vivo, mice; conditions: MCF-7 model, HBB 4 mg/kg/day ip vs PBS
Description: as §1, §2, §3, §4, §5

[8] = tested on: MDA-MB-231 line; experiment: 14,15-EET protection against biguanide growth inhibition, MTT, MDA-MB-231; assay type: cell-based; conditions: MDA-MB-231, 1 uM 14,15-EET, 24 hours
Description: Cells were plated in complete media in the presence of serum (10% FBS) and cultured at 37° C. with 5% CO2 and treated with HBB for 24 hours in the presence and absence of 1 uM 14,15-EET. Growth was then measured at 24 hours by MTT assay.
Results are expressed as mean±standard deviation (n=8).

[9] = target: CYP3A4 nanodiscs (Homo sapiens, UniProt P08684); experiment: CYP3A4 nanodisc spin shift titration; assay type: binding; conditions: vs metformin
[10] = tested on: AMPK; experiment: AMPK phosphorylation Western blot in MCF7; assay type: cell-based
Description: Western blotting analysis was performed in triplicate.
Cells were plated in complete media in the presence of serum (10% FBS) and cultured at 37° C. with 5% CO2 and treated with biguanides for 6 hours before harvesting. Total protein was extracted and analyzed by Western-blotting with GAPDH as an internal control.
Cells were plated in complete media in the presence of serum (10% FBS) and cultured at 37° C. with 5% CO2 and treated with 14,15-EET or EtOH control for 24 hours before harvesting. Total protein was extracted and analyzed by Western-blotting with GAPDH as an internal control.

Sequence of CYP3A4 nanodiscs (P08684 whole entry): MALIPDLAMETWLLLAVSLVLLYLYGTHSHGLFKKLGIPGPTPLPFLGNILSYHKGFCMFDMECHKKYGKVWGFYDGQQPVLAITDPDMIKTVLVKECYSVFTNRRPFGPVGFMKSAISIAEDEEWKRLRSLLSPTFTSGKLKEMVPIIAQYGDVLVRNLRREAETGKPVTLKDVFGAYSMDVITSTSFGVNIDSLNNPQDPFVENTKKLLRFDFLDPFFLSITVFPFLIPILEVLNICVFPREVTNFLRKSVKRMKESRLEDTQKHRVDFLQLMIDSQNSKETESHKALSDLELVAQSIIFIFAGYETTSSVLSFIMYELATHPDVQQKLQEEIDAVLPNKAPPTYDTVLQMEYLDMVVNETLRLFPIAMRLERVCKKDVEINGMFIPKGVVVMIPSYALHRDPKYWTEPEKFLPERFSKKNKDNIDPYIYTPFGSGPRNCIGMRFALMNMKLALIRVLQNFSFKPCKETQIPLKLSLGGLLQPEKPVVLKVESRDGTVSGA
Sequence of CYP3A4D3-24 (P08684 with tags, fused parts or gaps): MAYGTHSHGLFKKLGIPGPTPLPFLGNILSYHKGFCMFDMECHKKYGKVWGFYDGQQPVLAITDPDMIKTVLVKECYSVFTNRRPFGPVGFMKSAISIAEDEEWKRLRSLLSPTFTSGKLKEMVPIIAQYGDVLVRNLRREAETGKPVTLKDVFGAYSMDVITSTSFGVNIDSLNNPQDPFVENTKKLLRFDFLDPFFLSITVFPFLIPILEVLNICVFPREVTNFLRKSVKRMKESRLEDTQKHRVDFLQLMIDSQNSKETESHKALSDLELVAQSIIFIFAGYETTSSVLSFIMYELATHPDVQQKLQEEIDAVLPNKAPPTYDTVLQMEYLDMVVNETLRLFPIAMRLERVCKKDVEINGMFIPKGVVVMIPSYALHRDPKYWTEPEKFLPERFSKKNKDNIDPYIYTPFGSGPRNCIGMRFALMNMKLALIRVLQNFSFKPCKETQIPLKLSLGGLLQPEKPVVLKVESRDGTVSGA

CCCCCCNC(=N)NC(=N)NCc1ccccc1 [HBB, N1-hexyl-N5-benzyl biguanide]
extracellular acidification rate (ECAR) [1]: inhibits both OCR and ECAR
oxygen consumption rate (OCR) [1]: inhibits oxygen consumption rate (OCR); also recorded: inhibits both OCR and ECAR
tumor growth, MDA-MB-231 xenograft [2]: tumor growth wasn't inhibited; also recorded: no significant difference between the HBB and vehicle growth curves
concentration at 1 h [3]: 0.527 µM
angiogenesis (CD31 staining) [4]: inhibited angiogenesis in both models
fold more potent than metformin, delta 3-24 CYP3A4 spin shift [5]: ~12 fold
dose limiting toxicity [6]: weight loss
MTD at 42 days ([6]; nude, ip daily, read-out: maximum tolerated dose (MTD)): 4 mg/kg
angiogenesis (CD31 staining) [7]: inhibited angiogenesis in both models
rescue of MDA-MB-231 growth by 14,15-EET in the presence of the biguanide [8]: no protection
fold more potent than metformin, CYP3A4 nanodisc spin shift [9]: ~4 fold
AMPK phosphorylation relative to control ([10]; MCF7, 6 hours, metformin, buformin, phenformin 1 mM, HBB 20 uM): more potently activates AMPK; also recorded: increased phosphorylation of AMPK
fold more potent than metformin, activation of AMPK phosphorylation ([10]; vs metformin): ~50 fold
